From patent US9242008B2, “Mineral amino-acid complexes of fatty acids” (Thetis Pharmaceuticals LLC, priority 2014, dated 2016)

Legend:
[1] = single dose, oral pharmacokinetic study in rats (total EPA plasma levels); format: in vivo
From the text: The results of a single dose, oral pharmacokinetic study in rats for a compound of Formula III (designated TP-252, Mg-Lys2-EPA2) are shown in Table 1 below. One of the parameters shown in Table 1 is the area under the curve (AUC), which is the integral of a plot of concentration of drug in blood plasma against time. The AUC is proportional to the total amount of the active pharmaceutical agent (API) that reaches the blood circulation. In this example, the API (or analyte) is EPA. AUC and Cmax are given for the compound of Formula III, EPA free fatty acid (EPA FFA), and EPA ethyl ester (EPA EE). EPA ethyl ester is the FDA-approved form of EPA.

[2] = Physical stability study (proton NMR after exposure to air at room temperature); format: physicochemical
From the text: FIG. 1: Proton NMR spectrum of magnesium bis-lysinate bis-EPA taken on the day the compound was synthesized (upper trace) and 60-days later (lower trace) with the compound having been exposed to air at room temperature for the entire 60-day period.
The compounds of the invention are remarkably stable compared to omega-3 polyunsaturated free fatty acids, which typically show evidence of oxidative degradation with hours of exposure to atmospheric oxygen. […] The upper tracing in FIG. 1 is a proton NMR spectrum of magnesium bis-lysinate bis-EPA taken on the day the compound was synthesized. The lower tracing is the NMR taken 60-days later with the compound having been exposed to air at room temperature for the entire period.

Baseline and EPA Molar Dose Equivalent Adjusted Cmax of Total EPA in plasma ([1]; total dose 40.0 mg/kg, analyte EPA, Cmax minus predose level, multiplied by EPA molar dose adjustment factor): 13.2 µg/mL
Baseline and EPA Molar Dose Equivalent Adjusted AUC0-18 hrs of Total EPA in plasma ([1]; total dose 40.0 mg/kg, analyte EPA, baseline adjusted and multiplied by EPA molar dose adjustment factor): 133 µg·h/mL
time chemically stable ([2]; room temperature, exposed to air): at least 60 days
Compound: CC/C=C\C/C=C\C/C=C\C/C=C\C/C=C\CCCC(=O)O.CC/C=C\C/C=C\C/C=C\C/C=C\C/C=C\CCCC(=O)O.NCCCC[C@H](N)C(=O)[O-].NCCCC[C@H](N)C(=O)[O-].[Mg+2] [TP-252, magnesium bis-lysinate bis-EPA dihydrate]
EPA delivered to the blood plasma versus equivalent doses of EPA free fatty acid or EPA ethyl ester [1]: delivers significantly more EPA to the blood plasma
proton NMR evidence of oxidation or degradation ([2]; after 60 days exposed to air at room temperature versus day of synthesis): no evidence of oxidation or degradation by other mechanisms
